Laboratory results from US20210244700A1, “COMPOSITIONS AND METHODS FOR PREVENTING AND/OR REDUCING ISCHEMIA AFTER SURGICAL INCISIONS” (Duke University, priority 2018, published 2021).
“Also recorded” adds a separate entry of the source.

Legend:
[1] = cited from earlier work
VEGF = assay: Tissue VEGF concentration by enzyme-linked immunosorbent assay; assay type: in vivo, rat; details: skin flap 6 cm from the proximal flap, postoperative day 7; control 22.0±1.7 pg/ml; p=0.007
Experimental: Tissue samples were harvested on postoperative day 7 and dissected on ice, submerged in liquid nitrogen, then stored at −80° C. Tissue samples from tissue sections taken at the same distance 6 cm from the proximal flap were then homogenized in lysis buffer containing 100 mM Tris hydrochloride (pH 7.4), 150 mmol sodium chloride, 1% Triton X-100, 0.5% sodium deoxycholate, and 1 μg/ml protease inhibitor cocktail (Sigma Aldrich, St. Louis, Mo.). The samples were centrifuged to pellet the debris, and the supernatants were analyzed following the manufacturer's protocol for a rat tissue extract VEGF enzyme-linked immunosorbent assay kit (Sigma-Aldrich).

apoptotic cells = assay: Apoptosis by terminal deoxynucleotidyl transferase-mediated dUDP end-labeling staining of skin flap; assay type: in vivo, rat; details: 20× magnification, 4 cm from the proximal flap; control 15.1±6.2; p=0.045
Experimental: (§1) Tissues from the proximal and distal parts of the flaps were collected on postoperative day 7 and were fixed in 10% paraformaldehyde and embedded in paraffin, with representative sections depicted in FIG. 1. For histologic evaluation and CD31 immunohistochemical staining, sections taken 6 cm from the proximal flap were deparaffinized in xylene and rehydrated in a series of ethanol washes. For detection of CD31+ cells, sections were incubated with anti-mouse CD31 antibody (BD Pharmingen, San Jose, Calif.) at a dilution of 1:200 at 4° C. overnight. For analysis of angiogenesis, the CD31+ vessels in five fields were counted by light microscopy (20×) for each group. A TdT In Situ Cell Death Detection Kit (R&D Systems, Minneapolis, Minn.) was used to compare apoptotic protein expression in sections taken 4 cm from the proximal flap. The ratio of terminal deoxynucleotidyl transferase-mediated dUDP end-labeling-positive cells was calculated according to the manufacturer's protocol. Terminal deoxynucleotidyl transferase-mediated dUDP end-labeling-positive cells were also counted by light microscopy (20×) in 10 fields.

CD31+ vessels = assay: Neovascularization: CD31 immunohistochemistry and hematoxylin and eosin histology of skin flap; assay type: in vivo, rat
Experimental: as §1

[2] = Complete blood counts after 14 total days of treatment; assay type: in vivo, rat
Experimental: (§2) The animals were treated according to institutional animal care and use committee guidelines. Animals were double-housed for the preoperative period, then single-housed in the immediate postoperative period to protect flap integrity. Isoflurane anesthesia was used for all operations and daily intraperitoneal injections. Elizabethan collars were placed on rats to prevent ingestion of the topical solution after application. No dressing was used over the topical application site due to absorption. Animals were observed daily for side effects, including wound infections or dehiscence. Weights were taken on the day of surgery and on postoperative day 7. Blood samples were obtained on postoperative day 7 immediately before the animals were euthanized by means of cardiac puncture to determine hemoglobin, hematocrit, white blood cell count, and platelet count. Animals were euthanized by means of intracardiac potassium chloride on postoperative day 7, and gross necropsies were performed by a veterinarian to assess macroscopic organ changes after 14 total days of treatment.

ischemic skin flap [3] = assay: Skin flap necrosis, rat ischemic dorsal pedicle skin flap (McFarlane) model; assay type: in vivo; details: for mean percentage of skin flap necrosis: postoperative day 3; for mean percentage of skin flap necrosis / flap necrosis: intraperitoneal + topical; for mean percentage of skin flap necrosis / postsurgical flap necrosis percentage: control 41.3±3.8 percent; for flap necrosis: postoperative day 7; for flap necrosis / percentage of flap necrosis: control 50.9±3.9 percent; for postsurgical flap necrosis percentage: postsurgical day 3; for percentage of flap necrosis: postsurgical day 7
Experimental: (§3) After institutional animal care and use committee approval, hairless male rats (8 weeks old; 250 g) were obtained from Charles River Laboratories (Wilmington, Mass.). Six experimental groups of rats (n=24) and three control groups (n=12) underwent skin flap surgery by surgeons blinded to the experimental treatment arm. First, to assess both systemic and topical administration together, four experimental groups (n=16) were administered dimethyloxalylglycine (Cayman Chemical, Ann Arbor, Mich.) both intraperitoneally and topically for a total dose of 6 mg/kg/day (n=4), 12 mg/kg/day (n=4), 24 mg/kg/day (n=4), or 48 mg/kg/day (n=4). Next, to assess topical versus intraperitoneal administration, two experimental groups were administered dimethyloxalylglycine at 48 mg/kg/day either topically (n=4) or intraperitoneally (n=4). Intraperitoneal administration consisted of dimethyloxalylglycine suspension in phosphate-buffered saline (pH 7.4) to a maximum dosage of 10 ml/kg. Topical delivery consisted of administration of dimethyloxalylglycine using dimethylsulfoxide as a delivery vehicle at a maximum dosage of 9 ml/kg undiluted solution. Topical application was performed in the outline of the proposed skin flap. To replicate a short therapeutic course before and after flap surgery, the study was designed to include a 14-day treatment period, with dimethyloxalylglycine administered 7 days before and 7 days after flap surgery (FIG. 1). Because prolyl hydroxylase inhibitors target the HIF pathway […], this design was chosen to allow time for downstream neovascularization.
(§4) Throughout the same 14-day treatment course, control groups were administered an equal volume of intraperitoneal phosphate-buffered saline (pH 7.4) and topical dimethylsulfoxide. A dorsal pedicle skin flap based on the McFarlane model measuring 3×6 cm was elevated in the areolar tissue plane deep to the panniculus carnosus layer on each rat on treatment day 7. Consistency in flap design was ensured using a model outline for size and shape and positioning according to bony landmarks. After flap elevation, the flap was sutured in place with 4-0 polypropylene. Surgeons were blinded intraoperatively to treatment arm with a random numbers scheme. Seven days after surgery, the animals were euthanized and histologic analysis performed in postmortem tissue specimens.
(§5) Photographic measurements of necrosis were taken on postoperative days 1, 3, and 7. Flap necrosis was determined grossly by the presence of cyanosis and congestion on postoperative day 1 (FIG. 2) and the presence of scab formation and loss of skin elasticity on subsequent postsurgical days. At 7 days, tissue perfusion was assessed by means of intraperitoneal injection of 1 ml of sodium fluorescein 10% at 60 mg/kg and fluorescent imaging with an in vivo imaging system (IVIS Kinetic; PerkinElmer, Waltham, Mass.) using LIVING IMAGE® software with a 465-nm excitation and green fluorescent protein emission filter. Necrotic area was calculated using ImageJ Software (National Institutes of Health, Bethesda, Md.). Digital photographs and IVIS images were evaluated and analyzed by an investigator blinded to the assigned treatment group.

[4] = Side effect monitoring, weights and gross necropsy; assay type: in vivo, rat
Experimental: as §2

HIF-1α = HIF-1α immunohistochemistry of skin flap epidermis; assay type: in vivo, rat; details: 4 cm from the proximal flap, postoperative day 7, control 3.5±0.6, p<0.001
Experimental: For analysis of HIF-1α, sections were taken 4 cm from the proximal flap and incubated with anti-rabbit HIF-1α antibody (Novus Biologicals, Littleton, Colo.) at a dilution of 1:1600. A Discovery Ultra immunohistochemical system (Ventana Medical Systems, Oro Valley, Ariz.) was used for staining with OmniMap anti-Rb horseradish peroxidase and red chromogen was used for detection. HIF-1α-positive nuclei in the epidermis were counted by light microscopy (20×) in five fields. All immunohistochemical measurements were performed by a blinded investigator.

ischemic skin flap [5] = assay: Skin flap tissue perfusion, sodium fluorescein injection and IVIS imaging; assay type: in vivo, rat; details: postoperative day 7; for percentage of unperfused tissue: intraperitoneal + topical, control 39.9±3.8 percent; for percentage of unperfused tissue / percentage of overall flap perfusion: p<0.001; for percentage of overall flap perfusion: control 31.4±2.3 percent
Experimental: as §3, §4, §5

SMILES: O=c1c(-n2ccnn2)c[nH]n1-c1cc(N2CCOCC2)ncn1 [Molidastat]
- most common adverse effect in clinical trials [1]: hypertension resulting from polycythemia

SMILES: O=C(O)CNC(=O)c1ncc(-c2cccc(Cl)c2)cc1O [Vadadustat]
- most common adverse effect in clinical trials [1]: hypertension resulting from polycythemia

SMILES: COC(=O)CNC(=O)C(=O)OC [dimethyloxalylglycine]
- tissue VEGF concentration (VEGF): 37.1 ± 3.4 pg/mL
- number of apoptotic cells per high-power field (apoptotic cells): 1.7±0.6
- number of CD31-labeled vessels (CD31+ vessels; per high-power field at 20×, 6 cm from the proximal flap, after 14 total days of treatment, control 8.8±1.2, p=0.004): 18.8±2.2
- neovascularization on hematoxylin and eosin-stained tissue (CD31+ vessels; skin flap after 14 total days of treatment, versus controls): greater neovascularization
- mean hemoglobin ([2]; control 15.1±0.5 g/dl, p=0.3): 14.2 ± 1.0 g/dL
- mean white blood cell count ([2]; control 18.2±5.6×10^3/p1, p=0.08): 10.4±1.6 ×10^3/p1
- hematocrit ([2]; control 43.3±1.1 percent, p=0.2): 40.8±2.6%
- platelet count ([2]; control 1446±218×10^9/liter, p=0.8): 1510±247 ×10^9/liter
- cyanosis of flaps (ischemic skin flap [3]; postoperative day 1, treated versus control flaps (FIG. 2: 24 mg/kg/day intraperitoneal and topical)): Decreased cyanosis
- mean percentage of skin flap necrosis (ischemic skin flap [3]; total 6 mg/kg/day, p=0.13): 30.2±3.9%
- mean percentage of skin flap necrosis (ischemic skin flap [3]; total 12 mg/kg/day, p=0.001): 12.3±4.5%
- mean percentage of skin flap necrosis (ischemic skin flap [3]; total 24 mg/kg/day, p=0.008): 20.3±1.8%
- mean percentage of skin flap necrosis (ischemic skin flap [3]; total 48 mg/kg/day, p<0.001): 7.7±3.1%
- flap necrosis (ischemic skin flap [3]; total 6 mg/kg/day, p=0.004): 26.7±1.3%
- flap necrosis (ischemic skin flap [3]; total 12 mg/kg/day, p=0.002): 20.6±7.0%
- flap necrosis (ischemic skin flap [3]; total 24 mg/kg/day, p=0.003): 25.0±2.5%
- flap necrosis (ischemic skin flap [3]; total 48 mg/kg/day, p<0.001): 11.6±4.4%
- postsurgical flap necrosis percentage (ischemic skin flap [3]; intraperitoneal alone 48 mg/kg/day, p=0.002): 14.7±2.6%
- postsurgical flap necrosis percentage (ischemic skin flap [3]; topical alone 48 mg/kg/day, p=0.005): 18.9±2.8%
- percentage of flap necrosis (ischemic skin flap [3]; intraperitoneal alone 48 mg/kg/day, p<0.001): 16.3±5.2%
- percentage of flap necrosis (ischemic skin flap [3]; topical alone 48 mg/kg/day, p=0.003): 25.7±2.3%
- increase in flap viability (ischemic skin flap [3]; topical application and intraperitoneal administration): nearly threefold increase
- gross necropsy findings ([4]; after 14 total days of treatment): no evidence of cardiovascular changes, splenomegaly, or polycythemia; also recorded: no macroscopic organ changes were observed
- weights versus control animals ([4]; experimental day 1 or day 14, all doses): no differences
- wound infections, dehiscence, behavioral changes in feeding or activity ([4]; rat, in vivo): No wound infections, dehiscence, or behavioral changes in feeding or activity were observed
- number of HIF-1α-stained nuclei per high-power field (HIF-1α): 21.0±2.7
- dose dependence of tissue perfusion (ischemic skin flap [5]; 6 to 48 mg/kg/day): higher dimethyloxalylglycine doses leading to increased tissue perfusion
- percentage of unperfused tissue (ischemic skin flap [5]; total 6 mg/kg/day): 11.4±1.7%
- percentage of unperfused tissue (ischemic skin flap [5]; total 12 mg/kg/day): 9.4±4.2%
- percentage of unperfused tissue (ischemic skin flap [5]; total 24 mg/kg/day): 4.7±2.6%
- percentage of unperfused tissue (ischemic skin flap [5]; total 48 mg/kg/day): 1.4±0.9%
- percentage of overall flap perfusion (ischemic skin flap [5]; intraperitoneal alone 48 mg/kg/day): 7.2±3.8%
- percentage of overall flap perfusion (ischemic skin flap [5]; topical alone 48 mg/kg/day): 6.9±1.3%
